Measured values published in ChEMBL document CHEMBL4699412, “Understanding the mechanism of action of pyrrolo[3,2-b]quinoxaline-derivatives as kinase inhibitors” (RSC Med Chem, 2020).

Tests used:
[1] = molecular target: T1, Ephrin type-A receptor 3 (Homo sapiens) (UniProt P29320); assay: Binding affinity to EPHA3 (unknown origin) assessed as increase in change in melting temperature by differential scanning fluorimetric analysis
T1 sequence (whole entry): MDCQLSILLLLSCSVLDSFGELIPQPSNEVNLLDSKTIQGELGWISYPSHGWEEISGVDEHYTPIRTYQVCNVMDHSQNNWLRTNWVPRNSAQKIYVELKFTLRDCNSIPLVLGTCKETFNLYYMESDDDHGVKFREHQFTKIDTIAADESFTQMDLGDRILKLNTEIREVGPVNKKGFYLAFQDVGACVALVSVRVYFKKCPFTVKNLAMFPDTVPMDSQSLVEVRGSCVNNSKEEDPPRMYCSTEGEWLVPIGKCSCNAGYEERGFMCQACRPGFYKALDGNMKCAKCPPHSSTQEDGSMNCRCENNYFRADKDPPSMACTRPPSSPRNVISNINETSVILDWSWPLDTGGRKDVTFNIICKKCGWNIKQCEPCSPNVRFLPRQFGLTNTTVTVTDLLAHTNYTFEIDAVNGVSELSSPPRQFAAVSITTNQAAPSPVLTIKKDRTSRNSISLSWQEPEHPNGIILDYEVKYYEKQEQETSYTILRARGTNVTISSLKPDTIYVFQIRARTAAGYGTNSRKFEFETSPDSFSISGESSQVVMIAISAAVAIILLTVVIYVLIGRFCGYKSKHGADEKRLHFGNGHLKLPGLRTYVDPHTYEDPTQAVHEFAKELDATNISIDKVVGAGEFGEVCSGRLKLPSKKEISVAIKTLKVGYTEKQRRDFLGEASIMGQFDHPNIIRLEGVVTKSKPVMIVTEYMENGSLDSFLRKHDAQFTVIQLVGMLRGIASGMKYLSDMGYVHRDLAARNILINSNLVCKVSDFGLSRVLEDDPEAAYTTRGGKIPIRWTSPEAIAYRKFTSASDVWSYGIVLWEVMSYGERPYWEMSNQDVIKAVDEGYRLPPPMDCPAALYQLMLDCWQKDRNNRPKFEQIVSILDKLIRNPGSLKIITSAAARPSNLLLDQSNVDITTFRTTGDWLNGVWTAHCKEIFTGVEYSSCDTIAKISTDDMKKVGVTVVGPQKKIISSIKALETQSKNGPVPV

Ephrin type-B receptor 4 = molecular target: T2, Ephrin type-B receptor 4 (Homo sapiens, UniProt P54760); assay: Inhibition of full-length human EPHB4 expressed in MEF cells assessed as autophosphorylation by sandwitch-ELISA; type: cell-based
T2 sequence (P54760 whole entry): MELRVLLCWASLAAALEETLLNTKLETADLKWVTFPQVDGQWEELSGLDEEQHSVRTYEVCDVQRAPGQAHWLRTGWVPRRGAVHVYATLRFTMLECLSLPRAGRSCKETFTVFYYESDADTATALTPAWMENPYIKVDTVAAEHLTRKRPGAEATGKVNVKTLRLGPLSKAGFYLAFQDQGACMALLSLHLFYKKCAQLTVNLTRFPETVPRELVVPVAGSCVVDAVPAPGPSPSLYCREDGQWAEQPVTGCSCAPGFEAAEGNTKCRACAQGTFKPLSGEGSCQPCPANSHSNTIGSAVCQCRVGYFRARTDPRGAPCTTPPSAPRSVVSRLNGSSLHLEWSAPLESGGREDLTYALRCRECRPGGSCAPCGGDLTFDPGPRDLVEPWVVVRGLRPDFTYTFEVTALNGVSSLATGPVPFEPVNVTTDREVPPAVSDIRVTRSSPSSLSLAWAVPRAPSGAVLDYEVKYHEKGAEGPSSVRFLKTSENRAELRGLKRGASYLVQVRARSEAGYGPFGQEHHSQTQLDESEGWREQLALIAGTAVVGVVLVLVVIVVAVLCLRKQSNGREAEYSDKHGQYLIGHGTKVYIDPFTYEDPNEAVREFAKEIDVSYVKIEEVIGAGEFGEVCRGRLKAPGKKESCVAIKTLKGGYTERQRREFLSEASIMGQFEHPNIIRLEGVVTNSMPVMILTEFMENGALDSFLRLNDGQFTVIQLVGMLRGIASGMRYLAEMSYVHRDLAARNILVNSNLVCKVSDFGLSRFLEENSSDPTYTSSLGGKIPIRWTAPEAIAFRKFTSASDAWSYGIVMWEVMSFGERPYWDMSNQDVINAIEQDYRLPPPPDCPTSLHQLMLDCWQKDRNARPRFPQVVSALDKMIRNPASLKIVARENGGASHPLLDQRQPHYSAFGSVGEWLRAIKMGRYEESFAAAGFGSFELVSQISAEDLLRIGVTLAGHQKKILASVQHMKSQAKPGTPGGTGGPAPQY

[2] = molecular target: Tyrosine-protein kinase Lyn (Homo sapiens) (UniProt P07948); assay: Inhibition of wild-type human partial length LYN (C219 to Q511 residues) expressed in bacterial expression system at 1 uM by Kinomescan method relative to control
[3] = molecular target: Tyrosine-protein kinase Yes (Homo sapiens) (UniProt P07947); assay: Inhibition of wild-type human partial length YES (T257 to L543 residues) expressed in bacterial expression system at 1 uM by Kinomescan method relative to control
[4] = molecular target: Tyrosine-protein kinase BTK (Homo sapiens) (UniProt Q06187); assay: Inhibition of wild-type human full length BTK (M1 to S659 residues) expressed in mammalian expression system at 1 uM by Kinomescan method relative to control
[5] = molecular target: Tyrosine-protein kinase CSK (Homo sapiens) (UniProt P41240); assay: Inhibition of wild-type human full length CSK (M1 to L450 residues) expressed in bacterial expression system at 1 uM by Kinomescan method relative to control
[6] = Toxicity in NOD-SCID nude mouse xenografted with human Ri1 cells assessed as swelling surrounding the area of injection at 100 mg/kg, ip; type: organism-based; details: in vivo
[7] = Toxicity in NOD-SCID nude mouse xenografted with human Ri1 cells assessed as body weight loss at 100 mg/kg, ip; type: organism-based; details: in vivo
HUVEC [8] = assay: Antiangiogenic activity against HUVEC cells assessed as reduction in tube formation incubated for 15 hrs by matrigel-based assay relative to control; type: functional, Homo sapiens
HUVEC [9] = assay: Antiangiogenic activity against HUVEC cells assessed as reduction in total branching points incubated for 15 hrs by matrigel-based assay relative to control; type: functional, Homo sapiens
HUVEC [10] = assay: Antiangiogenic activity against HUVEC cells assessed as reduction in total loops incubated for 15 hrs by matrigel-based assay relative to control; type: functional, Homo sapiens
cells [11] = details: Homo sapiens, SU-DHL-1, 72 h
Maver1 = assay: cells; details: Homo sapiens, Maver1, 72 h
JeKo-1 = assay: cells; details: Homo sapiens, JeKo-1, 72 h
cells [12] = details: Homo sapiens, MEC1, 72 h
cells [13] = details: Homo sapiens, PCL12, 72 h
cells [14] = details: Homo sapiens, Ri-1, 72 h
[15] = Antitumor activity against human Ri1 cells xenografted in NOD-SCID mouse assessed as fold change in tumor size at 100 mg/kg, ip administered for 2 weeks by caliper method relative to control; type: functional, Ri-1
[16] = Toxicity in NOD-SCID nude mouse xenografted with human Ri1 cells assessed as body weight loss at 100 mg/kg, ip once every 5 days; details: in vivo, 360 h

Tyrosine-protein kinase Lyn (Homo sapiens), sequence (P07948 2-512 limits assumed): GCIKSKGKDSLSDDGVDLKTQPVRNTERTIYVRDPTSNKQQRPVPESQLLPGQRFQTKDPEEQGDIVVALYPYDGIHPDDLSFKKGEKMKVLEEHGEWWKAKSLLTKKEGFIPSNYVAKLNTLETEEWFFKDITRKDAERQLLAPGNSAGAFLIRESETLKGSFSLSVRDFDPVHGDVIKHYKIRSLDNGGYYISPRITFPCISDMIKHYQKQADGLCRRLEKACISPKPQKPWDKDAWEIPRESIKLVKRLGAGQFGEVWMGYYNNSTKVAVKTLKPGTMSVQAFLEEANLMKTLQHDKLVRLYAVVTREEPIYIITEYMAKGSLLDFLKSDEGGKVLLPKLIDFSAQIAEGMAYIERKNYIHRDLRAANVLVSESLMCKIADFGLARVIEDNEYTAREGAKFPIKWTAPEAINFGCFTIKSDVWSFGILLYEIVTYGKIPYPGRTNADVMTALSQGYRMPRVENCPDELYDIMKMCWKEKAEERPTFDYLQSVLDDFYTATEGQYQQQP
Tyrosine-protein kinase Yes (Homo sapiens), sequence (P07947 2-543 limits assumed): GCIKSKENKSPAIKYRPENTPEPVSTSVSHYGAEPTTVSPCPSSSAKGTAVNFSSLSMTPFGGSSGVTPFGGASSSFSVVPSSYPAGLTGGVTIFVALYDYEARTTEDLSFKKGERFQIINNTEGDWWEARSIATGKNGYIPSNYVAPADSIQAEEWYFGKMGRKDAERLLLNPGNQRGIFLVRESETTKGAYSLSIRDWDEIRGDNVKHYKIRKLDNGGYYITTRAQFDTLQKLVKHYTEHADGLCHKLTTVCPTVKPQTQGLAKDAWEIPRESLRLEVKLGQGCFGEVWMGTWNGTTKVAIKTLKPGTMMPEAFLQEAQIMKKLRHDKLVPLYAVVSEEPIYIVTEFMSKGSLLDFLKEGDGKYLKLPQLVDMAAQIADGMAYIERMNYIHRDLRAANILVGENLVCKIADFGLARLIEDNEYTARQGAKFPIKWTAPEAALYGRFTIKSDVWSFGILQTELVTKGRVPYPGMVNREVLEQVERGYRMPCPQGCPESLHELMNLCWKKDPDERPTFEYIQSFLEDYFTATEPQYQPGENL
Tyrosine-protein kinase BTK (Homo sapiens), sequence (Q06187 whole entry, the tested form may be a part): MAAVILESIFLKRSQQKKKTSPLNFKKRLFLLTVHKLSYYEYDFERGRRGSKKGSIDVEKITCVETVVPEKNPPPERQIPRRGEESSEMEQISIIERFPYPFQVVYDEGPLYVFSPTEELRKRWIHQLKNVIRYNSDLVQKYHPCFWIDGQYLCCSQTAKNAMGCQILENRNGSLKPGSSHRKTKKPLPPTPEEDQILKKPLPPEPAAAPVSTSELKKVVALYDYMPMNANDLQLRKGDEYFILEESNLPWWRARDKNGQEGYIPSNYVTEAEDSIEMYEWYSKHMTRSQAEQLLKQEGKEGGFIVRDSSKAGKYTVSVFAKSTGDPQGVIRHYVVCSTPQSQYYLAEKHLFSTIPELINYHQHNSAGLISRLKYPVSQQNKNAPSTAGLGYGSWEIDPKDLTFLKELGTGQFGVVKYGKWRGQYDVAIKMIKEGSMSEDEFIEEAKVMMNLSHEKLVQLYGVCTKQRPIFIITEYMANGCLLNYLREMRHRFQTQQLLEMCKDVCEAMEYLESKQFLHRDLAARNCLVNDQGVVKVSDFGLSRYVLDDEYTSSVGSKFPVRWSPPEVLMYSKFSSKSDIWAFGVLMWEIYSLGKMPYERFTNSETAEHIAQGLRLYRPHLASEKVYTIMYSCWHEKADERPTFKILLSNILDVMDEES
Tyrosine-protein kinase CSK (Homo sapiens), sequence (P41240 2-450 limits assumed): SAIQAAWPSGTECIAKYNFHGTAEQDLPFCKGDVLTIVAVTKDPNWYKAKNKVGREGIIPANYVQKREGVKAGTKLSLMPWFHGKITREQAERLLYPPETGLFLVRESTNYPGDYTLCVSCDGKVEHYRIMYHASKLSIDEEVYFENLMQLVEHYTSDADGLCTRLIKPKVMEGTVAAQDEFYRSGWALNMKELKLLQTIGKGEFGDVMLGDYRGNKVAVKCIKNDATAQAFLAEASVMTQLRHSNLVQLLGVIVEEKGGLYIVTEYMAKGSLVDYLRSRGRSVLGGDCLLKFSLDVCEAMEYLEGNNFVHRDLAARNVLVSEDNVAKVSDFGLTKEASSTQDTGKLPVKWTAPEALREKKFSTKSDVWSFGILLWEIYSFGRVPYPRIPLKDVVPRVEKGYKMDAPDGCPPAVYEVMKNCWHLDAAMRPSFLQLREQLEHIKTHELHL

ΔTm [1] [°C] | EC50 (Ephrin type-B receptor 4) [nM] | % control [2] [%] | % control [3] [%] | % control [4] [%] | % control [5] [%] | IC50 (cells [11]) [nM] | IC50 (Maver1) [nM] | IC50 (JeKo-1) [nM] | IC50 (cells [12]) [nM] | IC50 (cells [13]) [nM] | IC50 (cells [14]) [nM] | Compound | Activity [6] | Activity [7] | inhibition (INH) (HUVEC [8]) [%] | inhibition (INH) (HUVEC [9]) [%] | inhibition (INH) (HUVEC [10]) [%] | fold change (FC) [15] | Activity [16]
17.3 | 360 | 0.85 | 9.6 | 0.95 | 0.9 | 600 | 600 | 600 | 600 | 600 | 600 | Cc1ccc(-n2nc(C(C)(C)C)cc2NC(=O)Nc2ccc(-n3c(N)c(C(N)=O)c4nc5ccccc5nc43)cc2)cc1 | Toxic | Toxic | 65 | 90 | 100 | – | –
– | – | 0.5 | 1.9 | 3.3 | 0.65 | – | – | – | – | – | – | Cc1ccc(-n2nc(C(C)(C)C)cc2NC(=O)Nc2ccc(-n3c(N)c(C(N)=O)c4nc5ccc(NCCCN)cc5nc43)cc2)cc1 | – | – | – | – | – | – | –
19.3 | 1100 | – | – | – | – | 250 | 250 | 250 | 250 | 250 | 250 | CC(C)(C)c1cc(NC(=O)Nc2ccc(-n3c(N)c(C(N)=O)c4nc5ccccc5nc43)cc2)n(-c2ccc3ncccc3c2)n1 | – | – | – | – | – | 3 | Non-Toxic
